Results as given in patent publication US20060148908A1, “Supressant of toxicity induced by cancer chemotherapeutic agent and composition of cancer chemotherapeutic agent containing the same” (priority 2003, published 2006).
“Also recorded” adds a separate entry of the source.

Columns and labels:
NF-κB = settings: for binding activity of NF-κB induced by cisplatin: liver, oral pretreatment before cisplatin
Protocol: (§1) The density of band was measured by RFLPscan software.
(§2) The kidney and spleen were separated and weighed, respectively.
(§3) EMSA (electrophoretic mobility shift assay) was performed to evaluate the xanthorrhizol's effects on NF-κB and AP-1. […] After that, powdered liver tissues were homogenized in 500 μl of cool hypotonic buffer [10 mM HEPES (pH 7.8), 10 mM KCl, 1.5 mM MgCl2, 0.5 mM DIT, 0.2 mM PMSF]. To the homogenates was added 125 μl of 10% NP-40 solution, and the mixture was then centrifuged at 12,000×g for 1 min. Pellets were washed once with 100 μl of the above buffer and 12.5 μl of 10% NP-40, centrifuged, resuspended in 50 μl of 20 mM cool HEPES buffer (pH 7.8) containing 420 mM NaCl, 1.5 mM MgCl2, 0.2 mM EDTA, 0.5 mM DTT, 0.2 mM PMSF, and 20% glycerol, and centrifuged at 12000×g for 5 min at 4° C. The supernatant containing nuclear proteins was collected and assayed protein concentration and stored at −70° C. […] The binding reaction was carried out in 25 μl of the mixture containing 5 μl of incubation buffer [10 mM Tris-HCl (pH 7.5), 100 mM NaCl, 1 mM DTT, 1 mM EDTA, 4% (v/v) glycerol, and 0.1 mg/ml sonicated salmon sperm DNA], 10 μg of nuclear extracts, and 100,000 cpm of the labeled probe. After 50 min of incubation at room temperature, the samples and comparative samples mixed with 3 μl of loading buffer (250 mM Tris-HCl (pH7.5), 0.2% bromophenol blue, 40% glycerol) were electrophoresed through a 6% non-denaturing polyacrylamide gel at 150 V for 2 hrs. Finally, the gel was dried and exposed to X-ray film.

AP-1 = system: AP-1
Protocol: as §1, §2, §3

ClpX = test: DDRT-PCR and semiquantitative RT-PCR of liver, ClpX mRNA expression; type: in vivo, mice
S100A9 = test: DDRT-PCR and semiquantitative RT-PCR of liver, S100A9 mRNA expression; type: in vivo, mice
iNOS = test: Semiquantitative RT-PCR of liver, iNOS mRNA expression; type: in vivo, mice; settings: for induction of iNOS mRNA expression by cisplatin: pretreatment before cisplatin
Protocol: (§4) The mRNA expression levels of NF-κB-dependent genes, COX-2 and iNOS, were evaluated by semiquantitative RT-PCR using specific primer sets. β-actin and GAPDH were used as control.
as §2

Kin = settings: mouse, in vivo
Protocol: After that, powdered liver tissues were homogenized using TRIzol™ reagent (Life technologies, Austria). The homogenized samples were incubated for 5 min at room temperature to permit the complete dissociation of nucleoprotein complexes. After the addition of 0.2 volume of chloroform, samples were shaken vigorously for 15 seconds, incubated for 2-3 min, and centrifuged at 12000×g for 15 min at 4° C. Total RNA in the upper aqueous phase was precipitated by mixing with an equal volume of isopropanol. The mixtures were incubated for 10 min at 4° C. and centrifuged at 12000×g for 10 min at 4° C. Total RNA pellet was washed with 75% ethanol, dried, and dissolved in RNase free water. To prevent the contamination with chromosomal DNA, total RNA samples were incubated with 10 units of DNase I (GenHunter Corp., Nashville, USA) at 37° C. for 30 min, and then DNA-free RNA was isolated using TRIzol reagent. The concentration and purity of total RNA and DNase-I-treated total RNA were calculated with absorbance at 260 and 280 nm.
DDRT-PCR (differential display reverse transciption-polymerase chain reaction) was performed using the RNAimage kit (GenHunter Corp., Nashville, USA). […]

ICR mice [1] = test: Kidney and spleen weight relative to body weight in cisplatin-treated mice; type: in vivo; settings: for specific gravity of kidney: oral pretreatment for 4 days before cisplatin injection, versus cisplatin only
Protocol: Cisplatin was intraperitoneally injected in mice. After some time passed, body weights of the mice were checked and induction of toxicity was confirmed. Blood was gotten from the heart of etherized mouse, and biochemical markers related to the induction of hepatotoxicity and nephrotoxicity were evaluated, and the kidney and spleen were separated and weighed for comparison.
Changes of specific gravity of kidney were also measured to evaluate suppressing effects of xanthorrhizol on nephrotoxicity induced by cisplatin.
as §2

ICR mice [2] = test: Serum biochemical parameters (GPT, GOT, BUN, creatinine) in cisplatin-treated mice; type: in vivo
Protocol: as §2
Blood samples obtained from heart were kept at room temperature for 2 h, centrifuged at 3000 rpm for 10 minutes to obtain sera, and stored at low temperature for analyzing proteins. GPT (Glutamate-Pyruvate Transaminase), GOT (Glutamate-Oxaloacetate Transaminase), blood urea nitrogen (BUN), and creatinine from the serum were measured.
The principle is following: α-ketoglutaric acid+alanine→glutamate+pyruvate. Pyruvate formed by GPT enzyme in said reaction is reacted with 2,4-dinitrophenylhydrazine and the intensity of color formed by the resulting reaction is related to enzymatic activity. The absorbance was determined at 505 nm. The reagents for determining GPT and GOT were purchased from Sigma chemical Co. (St. Louis, U.S.A.). Because hemolyzed serum contains a high level of GOT and GPT compared to normal serum, only unhemolyzed serum should be used as much as possible. The separated serum samples were stored at 4° C. and used within 5 days because the activity of GPT and GOT might decrease after 5 days at low temperature.
1 ml alanine-α-KG substrate was added to test tube and was pre-warmed at 37° C. for 2-3 minutes. 0.2 ml serum samples was added to each tube and incubated at 37° C. for 30 minutes in water bath. After that, 1 ml 2,4-dinitrophenylhydrazine was added and incubated at room temperature for 20 minutes. 10 ml 0.4N NaOH solution was added to each tube and was mixed well. After that, the GPT absorbance of each tube was read comparing with distilled water. In case of GOT determination, 1 ml aspartate-α-KG substrate was pre-warmed at 37° C. for 2-3 minutes, and 0.2 ml serum samples were added to each tube and incubated at 37° C. for 60 minutes, and the absorbance was read.
Through a kit for assaying blood urea nitrogen, Ammonia (NH3) formed by hydrolysis of urea was measured by the absorbance at 570 nm.
0.5 ml urease solution was added to test tube and mixed with 10 μl serum sample, and incubated in water bath at 37° C. for 5-10 minutes. 1 ml phenol nitroprusside solution and 1 ml alkaline hypochlorite solution were added to the tube and mixed gentlely, and 5 ml distilled water was added. After that, the absorbance of the reaction was measured comparing with distilled water as a control. The reagents for determining urea nitrogen were purchased from Sigma chemical Co. (St. Louis, U.S.A.) and standard calibration curve was used.
Standard calibration curve was used.
3 ml alkaline picrate solution and 0.3 ml serum sample were mixed well at 37° C. for 20 minutes and the absorbance (A1) was measured. Distilled water was used for a negative control. 0.1 ml acid solution (mixture of sulfuric acid and acetic acid) was added to each tube and incubated in water bath at 37° C. for 5 minutes. After that, the absorbance (A2) was read with distilled water as a negative control. Absorbance of the sample for determining the content of creatinine is absorbance (A1) minus absorbance (A2) according to standard calibration curve. The reagents for determining creatinine were purchased from Sigma chemical Co. (St. Louis, U.S.A.)

COX-2 = test: Semiquantitative RT-PCR of liver, COX-2 mRNA expression; type: in vivo, mice; settings: for cisplatin-induced COX-2 mRNA expression: pretreatment 200 mg/kg before cisplatin
Protocol: as §4, §2

rat uterine = settings: Ponce-Monter et al. 1999; cited from earlier work
Streptococcus mutans = settings: Hwang 2000; cited from earlier work
[3] = administration of cisplatin alone
[4] = cisplatin 45 mg/kg i.p. alone (corn oil orally 4 days), 16 h after injection
[5] = cisplatin 45 mg/kg i.p. alone, 16 h after injection
[6] = liver, oral pretreatment before cisplatin
[7] = 200 mg/kg per day orally 4 days, then cisplatin 45 mg/kg i.p., 16 h
[8] = 100 mg/kg per day orally 4 days, then cisplatin 45 mg/kg i.p., 16 h
[9] = 200 mg/kg per day orally 4 days, then cisplatin 45 mg/kg i.p., 16 h, listed as xanthorrhizol

Protocol for CP: Each example group consisted of 10 ICR mice (5 weeks, male). […] Only the corn oil was dosed orally as a negative control. […] Mice were weighed 16 h after the injection, killed under ether anesthesia and blood and liver samples were collected. The kidney and spleen were separated and weighed, respectively.
After that, powdered liver tissues were homogenized using TRIzol™ reagent (Life technologies, Austria). The homogenized samples were incubated for 5 min at room temperature to permit the complete dissociation of nucleoprotein complexes. After the addition of 0.2 volume of chloroform, samples were shaken vigorously for 15 seconds, incubated for 2-3 min, and centrifuged at 12000×g for 15 min at 4° C. Total RNA in the upper aqueous phase was precipitated by mixing with an equal volume of isopropanol. The mixtures were incubated for 10 min at 4° C. and centrifuged at 12000×g for 10 min at 4° C. […] The concentration and purity of total RNA and DNase-I-treated total RNA were calculated with absorbance at 260 and 280 nm. […]
Semiquantitative RT-PCR was performed to confirm the results from DDRT-PCR. To set the most suitable PCR amplification conditions, primers for interesting gene were determined by an on-line primer design program (Rozen and Skaletsky, 2000). […]

N.N.[Cl][Pt][Cl] [Cisplatin, cis-diamminedichloroplatinum [II], reference compound]
DNA-binding activity of NF-κB (NF-κB; mouse, in vivo): increased | DNA-binding activity of AP-1 (AP-1; mouse, in vivo): decreased | ClpX mRNA expression (ClpX; cisplatin alone): downregulated | S100A9 mRNA expression (S100A9; cisplatin alone): upregulated | iNOS mRNA expression (iNOS; [3]): highly induced | Kin mRNA expression (Kin): upregulated | K.W/B.W * 1000% (kidney weight/body weight) (ICR mice [1]; [4]): 19.2 ± 1.6 | S.W/B.W * 1000% (spleen weight/body weight) (ICR mice [1]; [4]): 2.1 ± 0.4 | BUN (blood urea nitrogen) (ICR mice [2]; [5]): 144.4 ± 20.6 mg/dL | Creatinine (ICR mice [2]; [5]): 2.8 ± 0.7 mg/dL | GOT (ICR mice [2]; [5]): 517.1 ± 99.1 U/liter | GPT (ICR mice [2]; [5]): 185.8 ± 86.3 U/liter | COX-2 mRNA expression (COX-2; [3]): highly induced | CP mRNA expression (CP; mouse, in vivo): downregulated

COc1cc(/C=C/C(=O)CC(=O)/C=C/c2ccc(O)c(OC)c2)ccc1O [Curcumin, curcumin, reference compound]
binding activity of NF-κB induced by cisplatin (NF-κB): suppressed | suppressed binding activity of AP-1 (by cisplatin) (AP-1; [6]): did not change | induction of iNOS mRNA expression by cisplatin (iNOS): not suppressed | K.W/B.W * 1000% (kidney weight/body weight) (ICR mice [1]; [7]): 17.2 ± 1.7 | S.W/B.W * 1000% (spleen weight/body weight) (ICR mice [1]; [7]): 2.0 ± 0.1 | specific gravity of kidney (ICR mice [1]): decreased specific gravity of kidney at the level similar to that of the control group | BUN (blood urea nitrogen) (ICR mice [2]; [7]): 138.6 ± 46.2 mg/dL | Creatinine (ICR mice [2]; [7]): 2.2 ± 1.4 mg/dL | GOT (ICR mice [2]; [7]): 381.6 ± 144.7 U/liter | GPT (ICR mice [2]; [7]): 158.4 ± 84.3 U/liter | cisplatin-induced COX-2 mRNA expression (COX-2): returned the cisplatin-induced COX-2 mRNA expression to initial level | CP mRNA expression level changed by cisplatin (CP; liver, pretreatment before cisplatin): did not show that effect

CC(C)=CCC[C@@H](C)c1ccc(C)c(O)c1 [Xanthorrhizol, xanthorrhizol]
binding activity of NF-κB induced by cisplatin (NF-κB): suppressed | recovery of the binding activity of AP-1 suppressed by cisplatin (AP-1; [6]): about 50% | ClpX mRNA expression level changed by cisplatin (ClpX; pretreatment before cisplatin): maintained the ClpX mRNA expression in the same level as without administrating with cisplatin; also recorded: reversed | S100A9 mRNA expression level changed by cisplatin (S100A9; pretreatment before cisplatin): reversed | tonic contraction of rat uterine (rat uterine): dose-dependently limits tonic contraction | induction of iNOS mRNA expression by cisplatin (iNOS): strongly suppressed | K.W/B.W * 1000% (kidney weight/body weight) (ICR mice [1]; [8]): 17.5 ± 2.9 | S.W/B.W * 1000% (spleen weight/body weight) (ICR mice [1]; [8]): 2.1 ± 0.4 | K.W/B.W * 1000% (kidney weight/body weight) (ICR mice [1]; [7]): 14.6 ± 0.9 | S.W/B.W * 1000% (spleen weight/body weight) (ICR mice [1]; [7]): 2.0 ± 0.3 | specific gravity of kidney (ICR mice [1]): decreased specific gravity of kidney at the level similar to that of the control group | BUN (blood urea nitrogen) (ICR mice [2]; [8]): 145.2 ± 23.5 mg/dL | Creatinine (ICR mice [2]; [8]): 2.0 ± 1.1 mg/dL | GOT (ICR mice [2]; [8]): 296.5 ± 74.5 U/liter | GPT (ICR mice [2]; [8]): 134.2 ± 58.5 U/liter | BUN (blood urea nitrogen) (ICR mice [2]; [7]): 50.9 ± 16.7 mg/dL | Creatinine (ICR mice [2]; [7]): 0.8 ± 0.5 mg/dL | GOT (ICR mice [2]; [7]): 201.4 ± 50.3 U/liter | GPT (ICR mice [2]; [7]): 106.0 ± 28.3 U/liter | BUN (blood urea nitrogen) (ICR mice [2]; [9]): significantly decreased | Creatinine (ICR mice [2]; [9]): significantly decreased | GPT (ICR mice [2]; [9]): significantly reduced | cisplatin-induced COX-2 mRNA expression (COX-2): returned the cisplatin-induced COX-2 mRNA expression to initial level | antibacterial effect against oral bacteria such as Streptococcus mutans (Streptococcus mutans): antibacterial effect
